# Like-named read-outs stand apart in the source and are kept apart here.
# How the values were obtained:
# Type in all cases: cell-based
# [1] = biological target: T1, STAT3 (Homo sapiens, UniProt P40763); test: HiBiT assay, STAT3 degradation in STAT3-HiBiT KI HeLa cells; details: for DC50: read-out: STAT3 Degradation (HeLa 24 h HiBit) DC50
# T1 construct: This cell line is a clone created by using CRISPR-Cas9 to fuse HiBiT to the 3′ end of STAT3 in HeLa cells; host or cells: STAT3-HiBiT KI HeLa cell line (CRISPR-Cas9 knock-in clone)
# How it was run: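 Luminescence of endogenous HiBiT-tagged STAT3 (C-terminal knock-in, HeLa) was measured with lytic Nano-Glo detection after 24 h exposure to serially diluted compounds at 37 °C. Cells plated at 20000/well; untreated cells served as control, and triplicate means were fit by four-parameter regression to give IC50.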
# [2] = test system: SU-DHL-1 cells; test: CellTiter-Glo 2.0 cell viability assay, SU-DHL-1; details: Homo sapiens, 96 h, 4 days
# How it was run: (§1)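 IC50 derived by four-parameter nonlinear regression on triplicate luminescence data (CellTiter-Glo 2.0), normalised to untreated controls. Cells plated at 1000/well received serial compound dilutions for 4 days at 37 °C with 5% CO2.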
# [3] = test system: SUP-M2 cells; test: CellTiter-Glo 2.0 cell viability assay, SUP-M2; details: SUP-M2, 96 h, 4 days
# How it was run: as §1
# T1 sequence (P40763 whole entry): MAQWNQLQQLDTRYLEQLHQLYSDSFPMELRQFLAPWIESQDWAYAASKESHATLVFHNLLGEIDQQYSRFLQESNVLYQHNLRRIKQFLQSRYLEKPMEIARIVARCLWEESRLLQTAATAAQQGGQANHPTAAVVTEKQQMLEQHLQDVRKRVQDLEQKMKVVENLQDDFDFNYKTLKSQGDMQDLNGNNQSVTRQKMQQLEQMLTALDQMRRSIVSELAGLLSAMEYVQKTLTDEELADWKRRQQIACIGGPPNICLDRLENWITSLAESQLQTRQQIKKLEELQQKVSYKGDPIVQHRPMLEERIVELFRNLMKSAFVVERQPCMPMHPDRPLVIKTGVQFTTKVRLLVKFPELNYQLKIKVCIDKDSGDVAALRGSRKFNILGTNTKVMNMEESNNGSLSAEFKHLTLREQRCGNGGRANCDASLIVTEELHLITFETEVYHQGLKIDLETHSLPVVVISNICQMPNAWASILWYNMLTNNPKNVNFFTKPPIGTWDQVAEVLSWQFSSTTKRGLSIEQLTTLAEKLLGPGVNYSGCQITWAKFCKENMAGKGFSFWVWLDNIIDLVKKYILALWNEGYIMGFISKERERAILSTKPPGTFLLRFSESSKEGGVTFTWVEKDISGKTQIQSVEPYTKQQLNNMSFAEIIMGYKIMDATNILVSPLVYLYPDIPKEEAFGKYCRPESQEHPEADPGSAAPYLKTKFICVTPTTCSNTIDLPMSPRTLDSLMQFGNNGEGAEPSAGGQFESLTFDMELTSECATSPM
Compound,Dmax at 1 µM ([1]; 24 h) [%],DC50 ([1]; 24 h) [nM],IC50 [2] [nM],IC50 [3] [nM],DC50 [1] [nM]
"CC(=O)N1CC[C@H]2CC[C@@H](C(=O)N[C@@H](CCC(N)=O)COc3cccc(CCCc4cn([C@H](C(=O)N5C[C@H](O)C[C@H]5C(=O)N[C@@H](C)c5ccc(-c6scnc6C)cc5)C5CCOCC5)nn4)c3Cl)N2C(=O)[C@@H](NC(=O)c2cc3cc(C(=O)P(=O)(O)O)ccc3[nH]2)C1 [Compound 23, (2-(((5S,8S,10aR)-3-acetyl-8-(((S)-5-amino-1-(2-chloro-3-(3-(1-((S)-2-((2S,4R)-4-hydroxy-2-(((S)-1-(4-(4-methylthiazol-5-yl)phenyl)ethyl)carbamoyl)pyrrolidin-1-yl)-2-oxo-1-(tetrahydro-2H-pyran-4-yl)ethyl)-1H-1,2,3-triazol-4-yl)propyl)phenoxy)-5-oxopentan-2-yl)carbamoyl)-6-oxodecahydropyrrolo[1,2-a][1,5]diazocin-5-yl)carbamoyl)-1H-indole-5-carbonyl)phosphonic acid]",> 80,< 10,< 10,< 10,
"CCS(=O)(=O)c1ccc(CNC(=O)[C@H](CCC(N)=O)NC(=O)[C@@H]2CC[C@@H]3CCN(C(=O)CCCCc4cn([C@@H](C(=O)N5C[C@H](O)C[C@H]5C(=O)N[C@H](C)c5ccc(-c6scnc6C)cc5)C5CCOCC5)nn4)C[C@H](NC(=O)c4cc5cc(C(=O)P(=O)(O)O)ccc5[nH]4)C(=O)N32)cc1 [Compound 24, (2-(((5S,8S,10aR)-8-(((S)-5-amino-1-((4-(ethylsulfonyl)benzyl)amino)-1,5-dioxopentan-2-yl)carbamoyl)-3-(5-(1-((R)-2-((2S,4R)-4-hydroxy-2-(((R)-1-(4-(4-methylthiazol-5-yl)phenyl)ethyl)carbamoyl)pyrrolidin-1-yl)-2-oxo-1-(tetrahydro-2H-pyran-4-yl)ethyl)-1H-1,2,3-triazol-4-yl)pentanoyl)-6-oxodecahydropyrrolo[1,2-a][1,5]diazocin-5-yl)carbamoyl)-1H-indole-5-carbonyl)phosphonic acid]",> 80,,< 10,< 10,< 10
"CC(=O)N1CC[C@H]2CC[C@@H](C(=O)N[C@@H](CCC(N)=O)COc3cccc(CCCc4cn([C@H](C(=O)N5C[C@H](O)C[C@H]5C(=O)N[C@@H](C)c5ccc(-c6scnc6C)cc5)C5CCN(C6CCOCC6)CC5)nn4)c3Cl)N2C(=O)[C@@H](NC(=O)c2cc3cc(C(=O)P(=O)(O)O)ccc3[nH]2)C1 [Compound 25, (2-(((5S,8S,10aR)-3-acetyl-8-(((S)-5-amino-1-(2-chloro-3-(3-(1-((S)-2-((2S,4R)-4-hydroxy-2-(((S)-1-(4-(4-methylthiazol-5-yl)phenyl)ethyl)carbamoyl)pyrrolidin-1-yl)-2-oxo-1-(1-(tetrahydro-2H-pyran-4-yl)piperidin-4-yl)ethyl)-1H-1,2,3-triazol-4-yl)propyl)phenoxy)-5-oxopentan-2-yl)carbamoyl)-6-oxodecahydropyrrolo [1,2-a][1,5]diazocin-5-yl)carbamoyl)-1H-indole-5-carbonyl)phosphonic acid]",60 to 80,100 to 1000,10 to 100,10 to 100,
"COCCOCCOCCOCCC(=O)N1CC[C@H]2CC[C@@H](C(=O)N[C@@H](CCC(N)=O)COc3cccc(CCCc4cn([C@H](C(=O)N5C[C@H](O)C[C@H]5C(=O)N[C@@H](C)c5ccc(-c6scnc6C)cc5)C(C)(C)C)nn4)c3Cl)N2C(=O)[C@@H](NC(=O)c2cc3cc(C(=O)P(=O)(O)O)ccc3[nH]2)C1 [Compound 30, (2-(((5S,8S,10aR)-8-(((S)-5-amino-1-(2-chloro-3-(3-(1-((S)-1-((2S,4R)-4-hydroxy-2-(((S)-1-(4-(4-methylthiazol-5-yl)phenyl)ethyl)carbamoyl)pyrrolidin-1-yl)-3,3-dimethyl-1-oxobutan-2-yl)-1H-1,2,3-triazol-4-yl)propyl)phenoxy)-5-oxopentan-2-yl)carbamoyl)-6-oxo-3-(2,5,8,11-tetraoxatetradecan-14-oyl)decahydropyrrolo[1,2-a][1,5]diazocin-5-yl)carbamoyl)-1H-indole-5-carbonyl)phosphonic acid]",> 80,< 10,< 10,10 to 100,
"COCCOCCOCCOCCN1CC[C@H]2CC[C@@H](C(=O)N[C@@H](CCC(N)=O)COc3cccc(CCCc4cn([C@H](C(=O)N5C[C@H](O)C[C@H]5C(=O)N[C@@H](C)c5ccc(-c6scnc6C)cc5)C(C)(C)C)nn4)c3Cl)N2C(=O)[C@@H](NC(=O)c2cc3cc(C(=O)P(=O)(O)O)ccc3[nH]2)C1 [Compound 31, (2-(((5S,8S,10aR)-8-(((S)-5-amino-1-(2-chloro-3-(3-(1-((S)-1-((2S,4R)-4-hydroxy-2-(((S)-1-(4-(4-methylthiazol-5-yl)phenyl)ethyl)carbamoyl)pyrrolidin-1-yl)-3,3-dimethyl-1-oxobutan-2-yl)-1H-1,2,3-triazol-4-yl)propyl)phenoxy)-5-oxopentan-2-yl)carbamoyl)-6-oxo-3-(2,5,8,11-tetraoxatridecan-13-yl)decahydropyrrolo[1,2-a][1,5]diazocin-5-yl)carbamoyl)-1H-indole-5-carbonyl)phosphonic acid]",> 80,10 to 100,10 to 100,10 to 100,
"Cc1ncsc1-c1ccc([C@H](C)NC(=O)[C@@H]2C[C@@H](O)CN2C(=O)[C@@H](n2cc(CCCc3cccc(OC[C@H](CCC(N)=O)NC(=O)[C@@H]4CC[C@@H]5CCN(C(=O)C6CCN(C)CC6)C[C@H](NC(=O)c6cc7cc(C(=O)P(=O)(O)O)ccc7[nH]6)C(=O)N54)c3Cl)nn2)C(C)(C)C)cc1 [Compound 32, (2-(((5S,8S,10aR)-8-(((S)-5-amino-1-(2-chloro-3-(3-(1-((S)-1-((2S,4R)-4-hydroxy-2-(((S)-1-(4-(4-methylthiazol-5-yl)phenyl)ethyl)carbamoyl)pyrrolidin-1-yl)-3,3-dimethyl-1-oxobutan-2-yl)-1H-1,2,3-triazol-4-yl)propyl)phenoxy)-5-oxopentan-2-yl)carbamoyl)-3-(1-methylpiperidine-4-carbonyl)-6-oxodecahydropyrrolo[1,2-a][1,5]diazocin-5-yl)carbamoyl)-1H-indole-5-carbonyl)phosphonic acid]",> 80,10 to 100,10 to 100,100 to 1000,
"Cc1ncsc1-c1ccc([C@H](C)NC(=O)[C@@H]2C[C@@H](O)CN2C(=O)[C@@H](n2cc(CCCc3cccc(OC[C@H](CCC(N)=O)NC(=O)[C@@H]4CC[C@@H]5CCN(C(=O)CCN6CCN(C)CC6)C[C@H](NC(=O)c6cc7cc(C(=O)P(=O)(O)O)ccc7[nH]6)C(=O)N54)c3Cl)nn2)C(C)(C)C)cc1 [Compound 33, (2-(((5S,8S,10aR)-8-(((S)-5-amino-1-(2-chloro-3-(3-(1-((S)-1-((2S,4R)-4-hydroxy-2-(((S)-1-(4-(4-methylthiazol-5-yl)phenyl)ethyl)carbamoyl)pyrrolidin-1-yl)-3,3-dimethyl-1-oxobutan-2-yl)-1H-1,2,3-triazol-4-yl)propyl)phenoxy)-5-oxopentan-2-yl)carbamoyl)-3-(3-(4-methylpiperazin-1-yl)propanoyl)-6-oxodecahydropyrrolo[1,2-a][1,5]diazocin-5-yl)carbamoyl)-1H-indole-5-carbonyl)phosphonic acid]",> 80,10 to 100,10 to 100,100 to 1000,
"CC(=O)N1CC[C@H]2CC[C@@H](C(=O)N[C@@H](CCC(N)=O)COc3cccc(CCCCNC(=O)C[C@H](NC(=O)[C@@H]4C[C@@H](O)CN4C(=O)[C@H](C4CCCCC4)n4cc(C5CC5)nn4)c4ccc(-c5scnc5C)cc4)c3Cl)N2C(=O)[C@@H](NC(=O)c2cc3cc(C(=O)P(=O)(O)O)ccc3[nH]2)C1 [Compound 36, (2-(((5S,8S,10aR)-3-acetyl-8-(((S)-5-amino-1-(2-chloro-3-(4-((S)-3-((2S,4R)-1-((S)-2-cyclohexyl-2-(4-cyclopropyl-1H-1,2,3-triazol-1-yl)acetyl)-4-hydroxypyrrolidine-2-carboxamido)-3-(4-(4-methylthiazol-5-yl)phenyl)propanamido)butyl)phenoxy)-5-oxopentan-2-yl)carbamoyl)-6-oxodecahydropyrrolo[1,2-a][1,5]diazocin-5-yl)carbamoyl)-1H-indole-5-carbonyl)phosphonic acid]",> 80,< 10,< 10,< 10,
"CC(=O)N1CC[C@H]2CC[C@@H](C(=O)N[C@@H](CCC(N)=O)COc3cccc(CCCC(=O)N4CCC([C@@H](C(=O)N5C[C@H](O)C[C@H]5C(=O)N[C@@H](C)c5ccc(-c6scnc6C)cc5)n5cc(C6CC6)nn5)CC4)c3Cl)N2C(=O)[C@@H](NC(=O)c2cc3cc(C(=O)P(=O)(O)O)ccc3[nH]2)C1 [Compound 37, (2-(((5S,8S,10aR)-3-acetyl-8-(((S)-5-amino-1-(2-chloro-3-(4-(4-((S)-1-(4-cyclopropyl-1H-1,2,3-triazol-1-yl)-2-((2S,4R)-4-hydroxy-2-(((S)-1-(4-(4-methylthiazol-5-yl)phenyl)ethyl)carbamoyl)pyrrolidin-1-yl)-2-oxoethyl)piperidin-1-yl)-4-oxobutyl)phenoxy)-5-oxopentan-2-yl)carbamoyl)-6-oxodecahydropyrrolo[1,2-a][1,5]diazocin-5-yl)carbamoyl)-1H-indole-5-carbonyl)phosphonic acid]",60 to 80,100 to 1000,> 1000,10 to 100,
